Experimental data: patent EP4559898A1, “NOVEL IONIZABLE CATIONIC LIPIDS CONTAINING THIOETHER LINKAGE” (AldexChem Kft., priority 2023, dated 2025)

Columns and labels:
[1] = Cell viability assessment with Resazurin assay; format: cell-based; conditions: human, hela cells, average over all doses, percent of OptiMEM-only control, read-out: Cell Viability % (Average metabolic rate over all doses, Resazurin)
From the text: This protocol is used to determine the metabolic activity of cells as a measure for cell viability after exposure to potentially toxic substances. Resazurin is converted in mitochondria by reduction to resorufin, which has a much higher fluorescence at ~600 nm compared to unconverted resazurin. A lower amount/percentage of conversion is correlated with reduced cellular metabolism and indirectly to cellular death and toxicity. Care must be taken with interpretation of the read-out, as 50% reduction in resazurin conversion may mean 50% reduction of cellular metabolism of 100% alive cells, or 50% of cells dead, and any combination in between.
• 1. Prepare 0.25 mg/ml stock solution resazurin in fresh cell culture medium. Resazurin is auto-reducing over time in solution, especially in medium, and fresh stocks should be prepared every 2-3 days. Stocks should be stored at 4°C and protected from light. For HeLa cells, DMEM/F12 with 10% FCS is used. • 2. Dilute stock solution 10x in fresh cell culture medium to 0.025 mg/ml -> ready for application on cells. For HeLa cells, DMEM/F12 with 10% FCS is used. • 3. Collect 96-well plate and replace cell-culture spent medium with 100 µl per well resazurin solution. Add some resazurin solution for background measurement in wells not containing cells. • 4. Incubate for 50 minutes in incubator at 37°C, 5% CO2, 95% RH. • 5. Transfer resazurin solution to a fresh 96- or 384-well plate. • 6. Measure in plate reader using 540/25 nm (excitation) and 610/40 nm (emission) using standard settings (PTM low/OD-1.0). • 7. Subtract the average background measurement from all samples. Set the average of the negative controls (well receiving OptiMEM only during transfection) to 100% and express all values as percentage of the control activity. Typically, at lower levels of treatment, elevation of metabolic activity is shown, whereas for toxic substances, at toxic concentrations sigmoidal curves can be obtained, with lower activity indicating higher toxicity.

[2] = Encapsulation efficiency (RiboGreen assay) of mRNA-LNPs; format: physicochemical; conditions: mRNA-LNP formulated with tested lipid; RiboGreen with/without Triton X-100
Experimental: 1. Preparation of sample stock solutions: In the top row of the 96-well plate (Row A in the plate), add 297 µL of TE buffer pH 7.4 to a single well for each sample plus a single well for a PBS blank using a multichannel pipette. TE buffer preparation:
2. Add 3 µL of sample (at 0.5mg/ml) to these wells for a final volume of 300 µL. Add 3 µL of PBS to the blank well. Pipette to mix. This is your stock solution for each sample. The final RNA concentration of these stock solutions should be approximately 4-7 µg/mL. 3. mRNA-LNP sample setup: • a. Add 50 µL of TE buffer pH 7.5 to the two wells directly below each sample (Rows B and C in the plate). • b. Add 50 µL of sample stock solution from Row A into the wells in Rows B and C (this assay is run in duplicate. All liquid handling should be done using a multichannel pipette). • c. Add 50 µL of Triton buffer to the wells in Rows D and E (in the plate) below each sample. • d. Add 50 µL of sample stock solution from Row A into the wells in Rows D and E. 4. RiboGreen RNA standard curve setup: Dilute the RNA standard to produce an RNA stock at a final concentration of 20 µg/mL in TE buffer pH 7.4. The final volume should be 150 µL. Set up a standard curve (in duplicate) as using the RNA stock (20 µg/mL siRNA), TE buffer pH 7.5, and Triton X-100 buffer according the Table 2 below. Triton X-100 buffer preparation:
5. Once samples and standard curve are plated, incubate the plate at 37°C for 10 min to lyse mRNA-LNP in the presence of Triton X-100 buffer. 6. Meanwhile, prepare RiboGreen Solution: Sum the total number of sample wells and standard curve wells. Add three to this number, and multiply the total by 100. This is the total volume, in µL, of RiboGreen Solution needed for this assay. In a 15 mL RNAse-free Falcon tube, dilute the RiboGreen Reagent 1:100 into TE buffer pH 7.5 to the total volume calculated. 7. Addition of RiboGreen Solution and sample readings: Remove a 96-well plate from 37°C incubator; let it cool to room temperature as RiboGreen binding is somewhat temperature dependent. Add 100 µL of RiboGreen Solution to each well. Pop any air bubbles with a needle. Read using fluorescent plate reader (excitation = 480, emission = 525). 8. Sample analysis: Use the data generated by the RiboGreen standard curve to calculate the concentration of mRNA.

EE [2]	Structure (SMILES)	viability at 24 h [1]
94%	CCCCCCCCC(CCCCCC)C(=O)OCCCCCCN(CCCCO)CCCCCCOC(=O)C(CCCCCC)CCCCCCCC (stereo not shown) [ALC-0315 ref., reference compound]	96%
53%	CCCCCCCCCCSC(CCCC)C(=O)OCCCCCCN(CCCCO)CCCCCCOC(=O)C(CCCC)SCCCCCCCCCC (stereo not shown) [Example 1, ((4-hydroxybutyl)azanediyl)bis(hexane-6,1-diyl) bis(2-(decylthio)hexanoate)]	90%
55%	CCCCCCCCC(SCCCCC)C(=O)OCCCCCCN(CCCCO)CCCCCCOC(=O)C(CCCCCCCC)SCCCCC (stereo not shown) [Example 2, ((4-hydroxybutyl)azanediyl)bis(hexane-6,1-diyl) bis(2-(pentylthio)decanoate)]	94%
77%	CCCCCCCCCCSC(CCCC)C(=O)OCCCCCCCCN(CCCCO)CCCCCCCCOC(=O)C(CCCC)SCCCCCCCCCC (stereo not shown) [Example 3, ((4-hydroxybutyl)azanediyl)bis(octane-8,1-diyl) bis(2-(decylthio)hexanoate)]	103%
85%	CCCCCCCCCCSC(CCCC)C(=O)OCCCCCCN(CCO)CCCCCCOC(=O)C(CCCC)SCCCCCCCCCC (stereo not shown) [Example 4, ((2-hydroxyethyl)azanediyl)bis(hexane-6,1-diyl) bis(2-(decylthio)hexanoate)]	98%
96%	CCCCCCCCCCSC(CCCC)C(=O)OCCCCCCN(CCCCCCOC(=O)C(CCCC)SCCCCCCCCCC)CCC1CCCN1C (stereo not shown) [Example 5, ((2-(1-methylpyrrolidin-2-yl)ethyl)azanediyl)bis(hexane-6,1-diyl) bis(2-(decylthio)hexanoate)]	97%
90%	CCCCCCCCC(SCCCCCCC)C(=O)OCCCCCCN(CCCCO)CCCCCCOC(=O)C(CCCCCCCC)SCCCCCCC (stereo not shown) [Example 6, ((4-hydroxybutyl)azanediyl)bis(hexane-6,1-diyl) bis(2-(heptylthio)decanoate)]	101%
92%	CCCCCCCCCCSC(CCCCCCCC)C(=O)OCCCCCCN(CCCCO)CCCCCCOC(=O)C(CCCCCCCC)SCCCCCCCCCC (stereo not shown) [Example 7, ((4-hydroxybutyl)azanediyl)bis(hexane-6,1-diyl) bis(2-(decylthio)decanoate)]	106%
86%	CCCCCCCCCCSC(CCCCCC)C(=O)OCCCCCCN(CCCCO)CCCCCCOC(=O)C(CCCCCC)SCCCCCCCCCC (stereo not shown) [Example 8, ((4-hydroxybutyl)azanediyl)bis(hexane-6,1-diyl) bis(2-(decylthio)octanoate)]	104%
67%	CCCCCCCSC(CCCCCC)C(=O)OCCCCCCN(CCCCO)CCCCCCOC(=O)C(CCCCCC)SCCCCCCC (stereo not shown) [Example 9, ((4-hydroxybutyl)azanediyl)bis(hexane-6,1-diyl) bis(2-(heptylthio)octanoate)]	106%
83%	CCCCCCCCCCCCCCSCC(=O)OCCCCCCN(CCCCO)CCCCCCOC(=O)CSCCCCCCCCCCCCCC [Example 10, ((4-hydroxybutyl)azanediyl)bis(hexane-6,1-diyl) bis(2-(tetradecylthio)acetate)]	99%
